Assay results from patent US20050164331A1, “Method and device for detecting toxic material in water using microbial fuel cell” (priority 2002, published 2005).
Like-named read-outs stand apart in the source and are kept apart here.

Assays:
[1] = test system: electrochemically active bacteria in the sludge
golden dace = settings: 8 ppm phenol introduced to water; cited from earlier work
[2] = microbial fuel cell with active sludge, fuel glucose and glutamic acid (CODcr 200 ppm), standard solution added successively at 0.01-0.05 ppm, current measured at 60 seconds interval

For `[Cr+6]` [Cr^6+], the “concentration at which the constantly generated current showed a sharp drop” value (“concentration” for short) [1, 2] was 0.04 ppm.
With `[Pb]` [Pb, lead] the “concentration” value [1, 2] was 0.04 ppm.
In the case of `Oc1ccccc1` [phenol], the “concentration” value [1] is listed as 0.03 ppm and the “time required to determine the toxicity using fish” value (golden dace) is listed as 8 h.
